Data on 1 compound can be found in US20250186379A1, “METHODS AND AGENTS FOR DECREASING INSULIN RESISTANCE” (Whitehead Institute for Biomedical Research, priority 2021, published 2025).

The subject of one assay is IR-FKBP condensates. In words: tc-PALM of IR-Dendra2-FKBP condensate lifetime in HepG2 cells. It is filed as cell-based, human. Conditions: HepG2 cells expressing IR-FKBP; 5 μM AP1903 16 hours vs DMSO. The source says:
A CRISPR/Cas9 system was used to generate genetically modified HepG2 cell lines. Target sequences were cloned into a plasmid containing sgRNA backbone, a codon-optimized version of Cas9 and mCherry. For IR targeting, two Cas9 gRNAs were used. For the generation of the IR-mEGFP, IR-Dendra2, and IR-Dendra2-FKBP endogenously tagged lines, homology directed repair templates were cloned into pUC19 using NEBuilder HiFi DNA Assembly Master Mix (NEB, E2621S). For IR-mEGFP and IR-Dendra2 cell lines, the homology repair template consisted of mEGFP or Dendra2 cDNA sequence flanked on either side by 800 bp homology arms amplified from HepG2 genomic DNA using PCR (FIG. 27A). […]
Widefield, live-cell, super-resolution imaging was performed in a photo-activation localization microscopy (PALM) approach using a Nikon Eclipse Ti microscope with a 100× oil immersion objective. […] During each imaging cycle, a 2400-frame video stream including a (256 pixel)^2 region of interest (ROI) was recorded in 20 Hz acquisition rate with the EM-gain setting as 1000 on an Andor iXon Ultra 897 EMCCD. […]
Temporal clustering: For each spatial cluster, time-correlated PALM (tc-PALM) analysis was performed along the time axis to extract the truly colocalized, time-correlated multi-molecule bursting events. […] More details about the quantitative validations and statistics of tc-PALM analysis can be found in FIG. 30.

The subject of a further assay is IR-FKBP. Briefly: Western blotting and imaging of IR activity in HepG2 cells expressing IR-GFP-FKBP. The class given is cell-based, human. As to conditions: 5 μM AP1903 16 hours vs DMSO. The source says: For experiments that forced reduction in IR condensate dynamics, the vector used in this assay was modified from pJH135_pb_MCPx2_mCherry_rTTA vector^11. IR-mEGFP-FKBP, which consists of the insulin receptor cDNA, flexible linker 1, mEGFP, flexible linker 2, and four copies of FKBP, was cloned into PmeI and NheI digested pJH135_pb_MCPx2_mCherry_rTTA using Gibson cloning by following the manufacturer's instructions (NEB, E2621S). This vector is called JP204 pb_TetON_INSR_2A_GFP_Dmbr4.
For experiments that forced reduction in IR condensate dynamics, 1×10^5 cells/cm^2 HepG2 cells were transfected with 0.07 μg/cm^2 pJP204_pb_TetON_INSR_2A_GFP_Dmbr4 using Lipofectamine 3000 (Invitrogen, L3000). On day 2, the cells were treated with 100 ng/ml doxycycline (Sigma, D9891-5G). […]
Cells were washed with ice-cold PBS (Life Technologies, AM9625) and lysed in Cell Lytic M (Sigma Aldrich C2978) supplemented with protease and phosphatase inhibitors (Sigma Aldrich, 11873580001 and 4906837001) directly on the wells. […] Super natant was collected and protein concentration was determined using a BCA Protein Assay Kit (Life Technologies, 23250) according to the manufacturer's instructions. […] Immunoblot quantification was performed using the “analyze gel” tool on Fiji/ImageJ v2.1.0/153c.
To quantify pIRS1 fluorescent signal in IR puncta/condensates manually, Airyscan images were opened on Fiji as composite images. […]
In general terms: A western blot detects proteins with antibodies after separation by electrophoresis.

On to `CC[C@H](C(=O)N1CCCC[C@H]1C(=O)O[C@H](CCc1ccc(OC)c(OC)c1)c1cccc(OCC(=O)NCCNC(=O)COc2cccc([C@@H](CCc3ccc(OC)c(OC)c3)OC(=O)[C@@H]3CCCCN3C(=O)[C@@H](CC)c3cc(OC)c(OC)c(OC)c3)c2)c1)c1cc(OC)c(OC)c(OC)c1` [AP1903], for which the “lifetime of IR condensates” value in the assay on IR-FKBP condensates is “significantly increased the lifetime of IR condensates”. Further, in the assay with IR-FKBP, the “IR functional activity (pIR-FKBP, pIRS1)” value is “less functionally active”.
